Tested on: R439H Tph2 knock-in mice
Test: Tail suspension test after drug administration
Format: in vivo, mouse
Details: HO Tph2 knock-in mice; 30 min following administration; fluoxetine 5 mg/kg, TDZD 10 mg/kg (i.p.); vs vehicle (FIG. 7)
Procedure: Tail suspension test: Mice were tested in a tail suspension apparatus (Med-Associates, St. Albans, Vt.) as described (Crowley et al., 2004, Pharmacol. Biochem. Behav. 78:269-274). All mice were weighed and tail-marked 24 hrs before testing. Animals were brought into the testing room 4 hrs before injections. Pilot studies were used to determine the optimal automated threshold settings for immobility by comparing scores rated manually with scores tabulated simultaneously by the apparatus. Behavior was scored as time spent in immobility (sec) for the total period of the test.
Administration of anti-depressants or glycogen synthase kinase 3 inhibitors alleviates behavioral differences. Fluoxetine (Tocris Cookson Inc., Ellisville, Mo.) was dissolved in distilled water. Thiadiazolidinone (TDZD) (Calbiochem, Cambridge, Mass.) was injected (i.p.) following suspension in a minimal amount of Tween and diluted to volume with distilled water as previously described (Beaulieu et al., 2004, Proc. Natl Acad. Sci. USA 101:5099-5104). Corresponding vehicle solutions were injected in control animals. Mice were treated with vehicle or drug 30 min before testing. Behavioral testing was performed as described above.

SMILES	immobility times in the tail suspension test
Cn1sc(=O)n(Cc2ccccc2)c1=O [TDZD, thiadiazolidinone]	comparable reduction of immobility times
CNCCC(Oc1ccc(C(F)(F)F)cc1)c1ccccc1 (centres unmarked) [fluoxetine]	comparable reduction of immobility times

Source: US8124831B2, “Transgenic mice carrying functional single nucleotide polymorphisms in brain-specific tryptophan hydroxylase” (Duke University, priority 2006, dated 2012)
